From US20140315876A1, “BETA-LACTAMASE INHIBITORS” (priority 2013, published 2014)
Structures can show the parent of a compound that is named as a salt.

How the values were obtained:
[1] = system: bacterial strains that express the class D cephalosporinase OXA-15; test: Synergy MIC / standard BLI potentiation MIC assay, strains expressing OXA-15; type: cell-based, E. coli; settings: in the presence of a β-lactam; comparator Avibactam (comparator compound CCC)
Method: (§1) The experimental protocol was performed according to Clinical and Laboratory Standards Institute (CLSI) guidelines with modifications as described below (CLSI guidelines can be derived from the CLSI document M07-A9 published in January 2012: “Methods for Dilution Antimicrobial Susceptibility Tests for Bacteria That Grow Aerobically; Approved Standard-Ninth Edition”).
(§2) To prepare for MIC testing, frozen glycerol stocks of clinical isolates (Klebsiella pneumoniae, Eschericia coli, Enterobacter spp, Citrobacter spp, or Pseudomonas aeruginosa) were used to streak for isolated colonies on rich, non-selective, tryptic soy agar containing 5% sheep's blood (TSAB). Frozen glycerol stocks of laboratory engineered, isogenic E. coli strains, which contain cloned β-lactamase expressing plasmids were used to streak for isolated colonies on rich, selective LB agar supplemented with 25 μg/mL tetracycline to maintain the plasmid. All strains were incubated at 37° C. for 18-24 hrs.
(§3) On the day of testing, primary cultures were started by scraping off 5-10 colonies from the TSAB plates containing clinical strains or the tetracycline supplemented LB plates containing engineered strains. The clinical strain material was suspended in ˜5 mL of cation adjusted Mueller Hinton Broth (CAMHB) in 14 mL culture tubes. The engineered strain material was suspended in CAMHB (supplemented with 25 μg/mL tetracycline) in 14 mL culture tubes. All strains were incubated at 37° C. with aeration (200 rpm) for ˜2 hrs until the optical density at 600 nm (OD600) was ≧0.1.
(§4) The two compound components of the assay were each diluted in CAMHB and added to the 96-well broth microdilution assay plates. 50 μL of the β-lactam was added to each well of the assay plate in 2-fold dilutions with final concentrations ranging from 128 to 0.13 μg/mL. 25 μL of the BLI compound was added to all wells in the broth microdilution plates at a final concentration of 4 μg/mL. Inoculum cultures were prepared by standardizing the primary cultures to OD600=0.1 and then adding 20 μL of the adjusted primary culture per 1 mL CAMHB for clinical strains or CAMHB (supplemented with tetracycline at 100 μg/mL) for engineered strains, so that the final inoculum density was ˜10^5 colony forming units per milliliter. Diluted inoculum cultures were used to inoculate 25 μL per well in 96-well broth microdilution assay plates. The final volume of each well was 100 μL and contained a β-lactam at different concentrations, a BLI compound at 4 μg/mL concentration, the bacterial culture at an OD600 of approximately 0.001 and when necessary tetracycline at 25 μg/mL.
(§5) Plates were incubated for 18-20 hours at 37° C. with aeration (200 rpm). Following incubation, growth was confirmed visually placing plates over a viewing apparatus (stand with a mirror underneath) and then OD600 was measured using a SpectraMax 340PC384 plate reader (Molecular Devices, Sunnyvale, Calif.). Growth was defined as turbidity that could be detected with the naked eye or achieving minimum OD600 of 0.1. MIC values were defined as the lowest concentration producing no visible turbidity.
(§6) The synergy MIC (sMIC) assay determines the concentration of the BLI required to potentiate the activity of a fixed concentration of a β-lactam antibiotic against β-lactamase producing bacterial strains. The experimental protocol was performed according to Clinical and Laboratory Standards Institute (CLSI) guidelines with modifications as described below (CLSI guidelines can be derived from the CLSI document M07-A9 published in January 2012: “Methods for Dilution Antimicrobial Susceptibility Tests for Bacteria That Grow Aerobically; Approved Standard-Ninth Edition”). […]

[2] = system: bacterial strains that express KPC β-lactamases; test: Synergy MIC / standard BLI potentiation MIC assay, strains expressing KPC β-lactamases; type: cell-based; settings: more active for at least one KPC strain and/or better spectrum of activity than Avibactam; in the presence of a β-lactam
Method: as §1, §2, §3, §4, §5, §6

Structure (SMILES) | activity against bacterial strains that express the class D cephalosporinase OXA-15, compared with Avibactam [1] | activity and/or spectrum of activity against bacterial strains that express KPC β-lactamases, compared with Avibactam [2]
N[C@@H]1CC[C@H](c2nnc([C@@H]3CC[C@@H]4CN3C(=O)N4OS(=O)(=O)O)o2)C1 [Compound 729, (2S,5R)-2-(5-((1S,3R)-3-aminocyclopentyl)-1,3,4-oxadiazol-2-yl)-7-oxo-1,6-diazabicyclo[3.2.1]octan-6-yl hydrogen sulfate] | more active than Avibactam | more active than Avibactam
CNCCCc1nnc([C@@H]2CC[C@@H]3CN2C(=O)N3OS(=O)(=O)O)o1 [Compound 734, (2S,5R)-2-(5-(3-(methylamino)propyl)-1,3,4-oxadiazol-2-yl)-7-oxo-1,6-diazabicyclo[3.2.1]octan-6-yl hydrogen sulfate] | more active than Avibactam | more active than Avibactam
O=C1N2C[C@@H](CC[C@H]2c2nnc(CCCCNC3CCNCC3)o2)N1OS(=O)(=O)O [Compound 772, (2S,5R)-7-oxo-2-(5-(4-(piperidin-4-ylamino)butyl)-1,3,4-oxadiazol-2-yl)-1,6-diazabicyclo[3.2.1]octan-6-yl hydrogen sulfate] | more active than Avibactam | more active than Avibactam
CNCCc1nnc([C@@H]2CC[C@@H]3CN2C(=O)N3OS(=O)(=O)O)o1 [Compound 722, (2S,5R)-2-(5-(2-(methylamino)ethyl)-1,3,4-oxadiazol-2-yl)-7-oxo-1,6-diazabicyclo[3.2.1]octan-6-yl hydrogen sulfate] | more active than Avibactam | more active than Avibactam
N[C@H]1C[C@H](c2nnc([C@@H]3CC[C@@H]4CN3C(=O)N4OS(=O)(=O)O)o2)C1 [Compound 727, (2S,5R)-2-(5-((1r,3S)-3-aminocyclobutyl)-1,3,4-oxadiazol-2-yl)-7-oxo-1,6-diazabicyclo[3.2.1]octan-6-yl hydrogen sulfate] | more active than Avibactam | more active than Avibactam
O=C1N2C[C@@H](CC[C@H]2c2nnc([C@H]3CNCCN3)o2)N1OS(=O)(=O)O [Compound 779, (2S,5R)-7-oxo-2-(5-((R)-piperazin-2-yl)-1,3,4-oxadiazol-2-yl)-1,6-diazabicyclo[3.2.1]octan-6-yl hydrogen sulfate] | more active than Avibactam | more active than Avibactam
N=C(N)Nc1nnc([C@@H]2CC[C@@H]3CN2C(=O)N3OS(=O)(=O)O)o1 [Compound 738, (2S,5R)-2-(5-guanidino-1,3,4-oxadiazol-2-yl)-7-oxo-1,6-diazabicyclo[3.2.1]octan-6-yl hydrogen sulfate] | more active than Avibactam | more active than Avibactam
N[C@@H]1CN[C@@H](c2nnc([C@@H]3CC[C@@H]4CN3C(=O)N4OS(=O)(=O)O)o2)C1 [Compound 763, (2S,5R)-2-(5-((2R,4S)-4-aminopyrrolidin-2-yl)-1,3,4-oxadiazol-2-yl)-7-oxo-1,6-diazabicyclo[3.2.1]octan-6-yl hydrogen sulfate] | more active than Avibactam | more active than Avibactam
NCCCCc1nnc([C@@H]2CC[C@@H]3CN2C(=O)N3OS(=O)(=O)O)o1 [Compound 735, (2S,5R)-2-(5-(4-aminobutyl)-1,3,4-oxadiazol-2-yl)-7-oxo-1,6-diazabicyclo[3.2.1]octan-6-yl hydrogen sulfate] | more active than Avibactam | more active than Avibactam
O=C1N2C[C@@H](CC[C@H]2c2nnco2)N1OS(=O)(=O)O [Compound 701, (2S,5R)-2-(1,3,4-oxadiazol-2-yl)-7-oxo-1,6-diazabicyclo[3.2.1]octan-6-yl hydrogen sulfate] | more active than Avibactam | more active than Avibactam
C[n+]1ccc(-c2nnc([C@@H]3CC[C@@H]4CN3C(=O)N4OS(=O)(=O)[O-])o2)cc1 [Compound 782, (2S,5R)-2-(5-(1-methylpyridin-1-ium-4-yl)-1,3,4-oxadiazol-2-yl)-7-oxo-1,6-diazabicyclo[3.2.1]octan-6-yl sulfate] | more active than Avibactam | more active than Avibactam
O=C1N2C[C@@H](CC[C@H]2c2nnc(COC3CNC3)o2)N1OS(=O)(=O)O [Compound 744, (2S,5R)-2-(5-((azetidin-3-yloxy)methyl)-1,3,4-oxadiazol-2-yl)-7-oxo-1,6-diazabicyclo[3.2.1]octan-6-yl hydrogen sulfate] | more active than Avibactam | more active than Avibactam
N=C(N)N1CC(NCc2nnc([C@@H]3CC[C@@H]4CN3C(=O)N4OS(=O)(=O)O)o2)C1 [Compound 746, (2S,5R)-2-(5-(((1-carbamimidoylazetidin-3-yl)amino)methyl)-1,3,4-oxadiazol-2-yl)-7-oxo-1,6-diazabicyclo[3.2.1]octan-6-yl hydrogen sulfate] | more active than Avibactam | more active than Avibactam
NCCc1nnc([C@@H]2CC[C@@H]3CN2C(=O)N3OS(=O)(=O)O)o1 [Compound 703, (2S,5R)-2-(5-(2-aminoethyl)-1,3,4-oxadiazol-2-yl)-7-oxo-1,6-diazabicyclo[3.2.1]octan-6-yl hydrogen sulfate] | more active than Avibactam | more active than Avibactam
O=C1N2C[C@@H](CC[C@H]2c2nnc(C3CNC3)o2)N1OS(=O)(=O)O [Compound 708, (2S,5R)-2-(5-(azetidin-3-yl)-1,3,4-oxadiazol-2-yl)-7-oxo-1,6-diazabicyclo[3.2.1]octan-6-yl hydrogen sulfate] | more active than Avibactam | more active than Avibactam
O=C1N2C[C@@H](CC[C@H]2c2nnc(CN[C@@H]3CCNC3)o2)N1OS(=O)(=O)O [Compound 766, (2S,5R)-7-oxo-2-(5-(((R)-pyrrolidin-3-ylamino)methyl)-1,3,4-oxadiazol-2-yl)-1,6-diazabicyclo[3.2.1]octan-6-yl hydrogen sulfate] | more active than Avibactam | more active than Avibactam
NC1CCN(CCc2nnc([C@@H]3CC[C@@H]4CN3C(=O)N4OS(=O)(=O)O)o2)CC1 [Compound 775, (2S,5R)-2-(5-(2-(4-aminopiperidin-1-yl)ethyl)-1,3,4-oxadiazol-2-yl)-7-oxo-1,6-diazabicyclo[3.2.1]octan-6-yl hydrogen sulfate] | – | more active than Avibactam
